Structures can show the parent of a compound that is named as a salt. Where two headings read alike, the source gives them in different places.
Assays:
[1] = test system: tumor-induced bone pain (tactile allodynia)
Method: This study was conducted in two parts; the first phase determined the optimal dose level for the second phase.

sigma receptor = conditions: Sigma 1 and Sigma 2; cited from earlier work

Cc1cc(OCCN2CCOCC2)nn1-c1ccc2ccccc2c1 [example 1, 4-{2-[5-Methyl-1-(naphthalen-2-yl)-1H-pyrazol-3-yloxy]ethyl}morpholine hydrochloride]
mitigation of allodynia (von Frey test) ([1]; Phase 2, example 1 alone 40 mg/kg, 30 minutes after administration): not at 40 mg/kg
mitigation of allodynia (von Frey test) ([1]; Phase 2, example 1 alone 80 mg/kg, 30 minutes after administration): statistically significant mitigation of allodynia

CN1CC[C@]23c4c5ccc(O)c4O[C@H]2[C@@H](O)C=C[C@H]3[C@H]1C5 [morphine]
mitigation of allodynia (von Frey test) ([1]; Phase 1, morphine 1.25 mg/kg given at day 18): sub threshold dose
mitigation of allodynia (von Frey test) ([1]; Phase 1, morphine 2.5 mg/kg given at day 18): able to mitigate allodynia with statistical significance
mitigation of allodynia (von Frey test) ([1]; Phase 1, morphine 5 mg/kg given at day 18): able to mitigate allodynia with statistical significance
effect on allodynia 24 hours after administration ([1]; Phase 2, morphine 5 mg/kg (positive control), 24 hours after administration): no significant effect

CC(C)=CCN1CCC2(C)c3cc(O)ccc3CC1C2C (stereo not shown) [pentazocine]
affinity of the sigma receptors (sigma receptor): very high affinity

From patent US20130324535A1, “USE OF SIGMA LIGANDS IN BONE CANCER PAIN” (LABORATORIOS DEL DR. ESTEVE, S.A., priority 2010, published 2013)
